Experimental data as given in ChEMBL document CHEMBL1157397, “Cyclooxygenase (COX)-1 and -2 inhibitory labdane diterpenes from Crassocephalum mannii” (J Nat Prod, 2008).

Target: T1, Prostaglandin G/H synthase 1 (Ovis aries) (UniProt P05979)
T1 sequence (whole entry): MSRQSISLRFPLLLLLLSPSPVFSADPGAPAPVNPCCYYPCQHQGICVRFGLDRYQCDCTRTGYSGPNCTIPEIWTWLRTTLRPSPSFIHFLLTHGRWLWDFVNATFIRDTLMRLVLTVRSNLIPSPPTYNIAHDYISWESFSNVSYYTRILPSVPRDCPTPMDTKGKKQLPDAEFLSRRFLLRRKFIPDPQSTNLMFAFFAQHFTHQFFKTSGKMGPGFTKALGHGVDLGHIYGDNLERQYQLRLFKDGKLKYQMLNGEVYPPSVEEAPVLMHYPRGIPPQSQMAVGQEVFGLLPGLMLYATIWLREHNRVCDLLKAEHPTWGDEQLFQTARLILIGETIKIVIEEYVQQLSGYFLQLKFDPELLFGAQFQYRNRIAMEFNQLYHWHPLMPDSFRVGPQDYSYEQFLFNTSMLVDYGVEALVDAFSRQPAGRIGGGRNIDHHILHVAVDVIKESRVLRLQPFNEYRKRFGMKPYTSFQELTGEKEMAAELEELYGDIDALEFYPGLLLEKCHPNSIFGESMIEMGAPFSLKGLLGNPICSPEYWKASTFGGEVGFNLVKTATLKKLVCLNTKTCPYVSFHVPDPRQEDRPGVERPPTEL
Assay: Inhibition of ovine COX1 at 100 uM

inhibition [%]	SMILES
2	CC(=O)OC[C@]1(C)CCC[C@]2(C)[C@@H](CC/C(C)=C/C(=O)O)[C@](C)(O)CC[C@@H]12
18	CC(=O)OCC[C@@H]1[C@@]2(C)CCC[C@@](C)(COC(C)=O)[C@@H]2CC[C@@]1(C)O
29	C/C(=C\C(=O)O)CC[C@@H]1[C@@]2(C)CCC[C@@](C)(CO)[C@@H]2CC[C@@]1(C)O
44	C[C@@]1(CO)CCC[C@]2(C)[C@@H](CCO)[C@](C)(O)CC[C@@H]12
